{
  "source": "patent US20100041089A1",
  "about": "“IMPROVED METHOD FOR DETECTING CHEMICAL […]” (priority 2006, published 2010)",
  "tested_on": "yeast genes (expressed mRNA)",
  "assay": "DNA chip measurement of expressed mRNA of yeast genes after culture with a toxic chemical substance",
  "assay_type": "cell-based, Saccharomyces cerevisiae S288C",
  "conditions": "for level of expressed mRNA in the presence of chemical substance / level in the absence of chemical substance: cultured two hours with the chemical substance; for The level of expressed mRNA in the presence of chemical substance/The level of expressed mRNA in the absence of chemical substance: cultured two hours with substance",
  "protocol": "Yeast (Saccharomyces cerevisiae S288C (a SUC2mal mel gap2 CUP1)) were cultured at 25° C. on YPD medium (yeast extract 1%, polypeptone 2%, glucose 2%). One of toxic chemical substances was added to the cell at logarithmic growth phase, and the cell was further cultured for two hours. Cell was cultured without any chemical substance in the same condition, and was used as a control. Concentrations of the chemical substances were defined to inhibit the growth of the yeast but not lead to death.\nAfter the completion of cultivation, the culture was centrifuged to collect the cells. To the cells, sodium acetate buffer (50 mM sodium acetate, 10 mM EDTA, 1% SDS) was added, and the mixture was shaken at 65° C. for five minutes, followed by returning to room temperature, and obtaining the supernatant, which procedure was repeated two times. To the supernatant, ½ amount of a solution of phenol/chloroform (1:1) was added, and the mixture was centrifuged to give a supernatant, an equal amount of chloroform was added, and the mixture was centrifuged to give a supernatant. To the supernatant, an equal amount of isopropanol containing 0.3 M sodium acetate was added, and the mixture was allowed to stand at room temperature for 30 minutes, after which the mixture was centrifuged to give sediment of the whole RNAs. Seventy % ethanol was added to the sediment, and the mixture was again centrifuged to give sediment, which was then dried and dissolved in water. mRNA was isolated from the whole RNAs as followings. In view of the fact that a poly A chain is attached to the 3′ terminus of mRNA, a polynucleotide having a poly T structure which was immobilized on the surface of latex beads was used to trap the mRNA, and then the mRNA was washed and eluted with spine column (Oligotex-dT30<Super>mRNA Purification Kit, Takara). Reverse transcription of the mRNA was conducted with a reverse transcriptase (Super Script II Reverse Transcriptase; catalogue No. 18064-014, GibcoBRL) using fluorescence-labeled nucleotides to give cDNAs that were introduced with Cy3-dUTP or Cy5-dUTP during the reverse transcription.\nThe labeled cDNAs were dissolved in TE buffer (10 mM Tris-HCl/1 mM EDTA, pH 8.0), and the solution was dropped on the DNA chip containing the whole genes of yeast (DNA Chip Research Inc. Japan) so that the cDNAs were hybridized on the DNA chip at 65° C. for over 12 hours. The fluoresces intensity of the DNA chip was read with a scanner, and the ratio relative to the fluorescence intensity resulting from the absence of chemical substance was estimated as the following, which is shown in Tables 1 to 9.\nIn the Tables, “Intensity” indicated in the rightmost column is a value of the level of expressed mRNA of each gene in control cells as divided by the average level of the expressions of the whole genes. A gene of which mRNA level is lower in control, and is higher in cases of addition of chemical substance, is especially useful in the detection of toxic substances.\nHere, when a ratio of an amount of mRNA expressed in the presence of the chemical substance to an amount of mRNA expressed in the absence of the chemical substance is two or more, then it is considered significant.",
  "data": [
    {"smiles": "[Cl][Pb][Cl]", "note": "[(4), PbCl2]", "values": [
      {"measurement": "level of expressed mRNA in the presence of chemical substance / level in the absence of chemical substance", "setting": "yeast gene YDR133C", "value": 2.0},
      {"measurement": "level of expressed mRNA in the presence of chemical substance / level in the absence of chemical substance", "setting": "yeast gene YDR250C", "value": 3.0},
      {"measurement": "level of expressed mRNA in the presence of chemical substance / level in the absence of chemical substance", "setting": "yeast gene YDR278C", "value": 1.0},
      {"measurement": "level of expressed mRNA in the presence of chemical substance / level in the absence of chemical substance", "setting": "yeast gene YDR281C", "value": 2.1},
      {"measurement": "The level of expressed mRNA in the presence of chemical substance/The level of expressed mRNA in the absence of chemical substance", "setting": "yeast gene YDR330W", "value": 0.8},
      {"measurement": "level of expressed mRNA in the presence of chemical substance / level in the absence of chemical substance", "setting": "yeast gene YDR366C", "value": 0.9},
      {"measurement": "The level of expressed mRNA in the presence of chemical substance/The level of expressed mRNA in the absence of chemical substance", "setting": "yeast gene YDR411C", "value": 1.2},
      {"measurement": "The level of expressed mRNA in the presence of chemical substance/The level of expressed mRNA in the absence of chemical substance", "setting": "yeast gene YDR511W", "value": 2.3},
      {"measurement": "The level of expressed mRNA in the presence of chemical substance/The level of expressed mRNA in the absence of chemical substance", "setting": "yeast gene YDR545W", "value": 0.7},
      {"measurement": "The level of expressed mRNA in the presence of chemical substance/The level of expressed mRNA in the absence of chemical substance", "setting": "yeast gene YEL001C", "value": 0.7},
      {"measurement": "The level of expressed mRNA in the presence of chemical substance/The level of expressed mRNA in the absence of chemical substance", "setting": "yeast gene YER004W", "value": 1.4},
      {"measurement": "The level of expressed mRNA in the presence of chemical substance/The level of expressed mRNA in the absence of chemical substance", "setting": "yeast gene YER035W", "value": 1.9},
      {"measurement": "The level of expressed mRNA in the presence of chemical substance/The level of expressed mRNA in the absence of chemical substance", "setting": "yeast gene YER079W", "value": 2.0},
      {"measurement": "The level of expressed mRNA in the presence of chemical substance/The level of expressed mRNA in the absence of chemical substance", "setting": "yeast gene YER106W", "value": 1.2},
      {"measurement": "The level of expressed mRNA in the presence of chemical substance/The level of expressed mRNA in the absence of chemical substance", "setting": "yeast gene YER158C", "value": 3.1},
      {"measurement": "The level of expressed mRNA in the presence of chemical substance/The level of expressed mRNA in the absence of chemical substance", "setting": "yeast gene YER163C", "value": 1.6},
      {"measurement": "The level of expressed mRNA in the presence of chemical substance/The level of expressed mRNA in the absence of chemical substance", "setting": "yeast gene YER175C", "value": 2.2},
      {"measurement": "The level of expressed mRNA in the presence of chemical substance/The level of expressed mRNA in the absence of chemical substance", "setting": "yeast gene YFL006W", "value": 1.0},
      {"measurement": "The level of expressed mRNA in the presence of chemical substance/The level of expressed mRNA in the absence of chemical substance", "setting": "yeast gene YFL010C", "value": 1.0},
      {"measurement": "The level of expressed mRNA in the presence of chemical substance/The level of expressed mRNA in the absence of chemical substance", "setting": "yeast gene YFL024C", "value": 0.7},
      {"measurement": "The level of expressed mRNA in the presence of chemical substance/The level of expressed mRNA in the absence of chemical substance", "setting": "yeast gene YFL032W", "value": 0.8},
      {"measurement": "level of expressed mRNA in the presence of chemical substance / level in the absence of chemical substance", "setting": "yeast gene YFR026C", "value": 0.8},
      {"measurement": "The level of expressed mRNA in the presence of chemical substance/The level of expressed mRNA in the absence of chemical substance", "setting": "yeast gene YGL037C", "value": 2.1},
      {"measurement": "The level of expressed mRNA in the presence of chemical substance/The level of expressed mRNA in the absence of chemical substance", "setting": "yeast gene YGL047W", "value": 2.3},
      {"measurement": "The level of expressed mRNA in the presence of chemical substance/The level of expressed mRNA in the absence of chemical substance", "setting": "yeast gene YGL053W", "value": 2.5},
      {"measurement": "level of expressed mRNA in the presence of chemical substance / level in the absence of chemical substance", "setting": "yeast gene YGL088W", "value": 1.1},
      {"measurement": "The level of expressed mRNA in the presence of chemical substance/The level of expressed mRNA in the absence of chemical substance", "setting": "yeast gene YGL121C", "value": 4.2},
      {"measurement": "The level of expressed mRNA in the presence of chemical substance/The level of expressed mRNA in the absence of chemical substance", "setting": "yeast gene YGL199C", "value": 1.0},
      {"measurement": "level of expressed mRNA in the presence of chemical substance / level in the absence of chemical substance", "setting": "yeast gene YGR038W", "value": 0.8},
      {"measurement": "The level of expressed mRNA in the presence of chemical substance/The level of expressed mRNA in the absence of chemical substance", "setting": "yeast gene YGR101W", "value": 1.1},
      {"measurement": "The level of expressed mRNA in the presence of chemical substance/The level of expressed mRNA in the absence of chemical substance", "setting": "yeast gene YGR110W", "value": 5.9},
      {"measurement": "The level of expressed mRNA in the presence of chemical substance/The level of expressed mRNA in the absence of chemical substance", "setting": "yeast gene YGR130C", "value": 1.6},
      {"measurement": "level of expressed mRNA in the presence of chemical substance / level in the absence of chemical substance", "setting": "yeast gene YGR139W", "value": 0.7},
      {"measurement": "The level of expressed mRNA in the presence of chemical substance/The level of expressed mRNA in the absence of chemical substance", "setting": "yeast gene YGR154C", "value": 0.5},
      {"measurement": "The level of expressed mRNA in the presence of chemical substance/The level of expressed mRNA in the absence of chemical substance", "setting": "yeast gene YGR221C", "value": 1.4},
      {"measurement": "level of expressed mRNA in the presence of chemical substance / level in the absence of chemical substance", "setting": "yeast gene YGR243W", "value": 5.0},
      {"measurement": "level of expressed mRNA in the presence of chemical substance / level in the absence of chemical substance", "setting": "yeast gene YGR293C", "value": 0.0},
      {"measurement": "level of expressed mRNA in the presence of chemical substance / level in the absence of chemical substance", "setting": "yeast gene YHL006C", "value": 0.6},
      {"measurement": "level of expressed mRNA in the presence of chemical substance / level in the absence of chemical substance", "setting": "yeast gene YHR095W", "value": 2.1},
      {"measurement": "level of expressed mRNA in the presence of chemical substance / level in the absence of chemical substance", "setting": "yeast gene YHR105W", "value": 6.3},
      {"measurement": "The level of expressed mRNA in the presence of chemical substance/The level of expressed mRNA in the absence of chemical substance", "setting": "yeast gene YHR138C", "value": 2.8},
      {"measurement": "level of expressed mRNA in the presence of chemical substance / level in the absence of chemical substance", "setting": "yeast gene YHR181W", "value": 1.4},
      {"measurement": "The level of expressed mRNA in the presence of chemical substance/The level of expressed mRNA in the absence of chemical substance", "setting": "yeast gene YHR199C", "value": 2.0},
      {"measurement": "The level of expressed mRNA in the presence of chemical substance/The level of expressed mRNA in the absence of chemical substance", "setting": "yeast gene YIL023C", "value": 1.8},
      {"measurement": "The level of expressed mRNA in the presence of chemical substance/The level of expressed mRNA in the absence of chemical substance", "setting": "yeast gene YIL041W", "value": 1.3},
      {"measurement": "The level of expressed mRNA in the presence of chemical substance/The level of expressed mRNA in the absence of chemical substance", "setting": "yeast gene YIL087C", "value": 1.6},
      {"measurement": "level of expressed mRNA in the presence of chemical substance / level in the absence of chemical substance", "setting": "yeast gene YIL127C", "value": 1.2},
      {"measurement": "level of expressed mRNA in the presence of chemical substance / level in the absence of chemical substance", "setting": "yeast gene YJL017W", "value": 1.1},
      {"measurement": "level of expressed mRNA in the presence of chemical substance / level in the absence of chemical substance", "setting": "yeast gene YJL037W", "value": 2.4},
      {"measurement": "The level of expressed mRNA in the presence of chemical substance/The level of expressed mRNA in the absence of chemical substance", "setting": "yeast gene YJL057C", "value": 1.7},
      {"measurement": "The level of expressed mRNA in the presence of chemical substance/The level of expressed mRNA in the absence of chemical substance", "setting": "yeast gene YJL066C", "value": 2.5},
      {"measurement": "The level of expressed mRNA in the presence of chemical substance/The level of expressed mRNA in the absence of chemical substance", "setting": "yeast gene YJL082W", "value": 1.1}
    ]}
  ]
}
